Values joined by “and” are separate entries in the source; they are usually repeats but may differ in a detail not shown here. Equal values may be shown once.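 A five-concentration, 48-hour dose response in 96-well plates underlies each endpoint, interpolated linearly between surrounding concentrations. The concentration for 50% growth inhibition is given as GI50. TGI: total growth inhibition.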
What was measured:
Assay in all cases: growth of human tumour cells (NCI), 48 h
SW-620 colon = system: SW-620 colon
K-562 leukemia = system: K-562 leukemia
OVCAR-3 ovarian = system: OVCAR-3 ovarian
SF-268 CNS = system: SF-268 CNS
COLO 205 colon = system: COLO 205 colon
RPMI-8226 leukemia = system: RPMI-8226 leukemia
NCI-H460 lung = system: NCI-H460 lung
LOX IMVI melanoma = system: LOX IMVI melanoma
HOP-62 NSCLC = system: HOP-62 NSCLC
UACC-257 melanoma = system: UACC-257 melanoma

Compound | TGI (SW-620 colon) | TGI (K-562 leukemia) | TGI (OVCAR-3 ovarian) | TGI (SF-268 CNS) | TGI (COLO 205 colon) | TGI (RPMI-8226 leukemia) | TGI (NCI-H460 lung) | TGI (LOX IMVI melanoma) | TGI (HOP-62 NSCLC) | TGI (UACC-257 melanoma) | GI50 (OVCAR-3 ovarian) [µM] | GI50 (RPMI-8226 leukemia) [µM] | GI50 (SW-620 colon) [µM] | GI50 (K-562 leukemia) [µM] | GI50 (SF-268 CNS) [µM] | GI50 (COLO 205 colon) [µM] | GI50 (NCI-H460 lung) [µM] | GI50 (LOX IMVI melanoma) [µM] | GI50 (UACC-257 melanoma) [µM] | GI50 (HOP-62 NSCLC) [µM]
C/C=C/[P+](c1ccccc1)(c1ccccc1)c1ccccc1 | 24.3 µM | 28.2 µM | 7.94 µM | 17.1 µM | 0.285 µM | 0.898 µM | 28.3 µM | 7.26 µM | 27.4 µM | 11.2 µM | – | – | – | – | – | – | – | – | – | –
CN(C)c1ccc(/C=N\NC(=O)CSCC(=O)N/N=C/c2ccc(N(C)C)cc2)cc1 | > 100 µM | > 100 µM | > 100 µM | > 100 µM | > 100 µM | > 100 µM | > 100 µM | > 100 µM | > 100 µM | > 100 µM | – | – | – | – | – | – | – | – | – | –
O=c1ccc2cc(O)c(O)cc2o1 | > 100 µM | > 100 µM | > 100 µM | > 100 µM | > 100 µM | > 100 µM | > 100 µM | > 100 µM | > 100 µM | > 100 µM | – | – | – | – | – | – | – | – | – | –
NC(=O)CCCC(NCc1c2ccccc2nc2ccccc12)C(=O)O (stereo unspecified) | > 100 µM | > 100 µM | > 100 µM | > 100 µM | > 100 µM | 93.6 µM | > 100 µM | > 100 µM | > 100 µM | > 100 µM | – | – | – | – | – | – | – | – | – | –
O=c1oc2ccccc2c2c(=O)c3ccc(OC/C(=N/O)c4ccc(Cl)cc4)cc3oc12 | 37 µM | 12.1 µM | 10.9 µM | 41.8 µM | 29.1 µM | 33.1 µM | 33 µM | 31.9 µM | 31.5 µM | > 100 µM | – | – | – | – | – | – | – | – | – | –
CN(C)CCNc1nc(-c2ccc3ccccc3c2)nc2nc[nH]c12 | 24.6 µM | > 100 µM | 21 µM | 25.1 µM | 21.7 µM | > 100 µM | 15.6 µM | 18.8 µM | 23.1 µM | 19.5 µM | – | – | – | – | – | – | – | – | – | –
NC(N)=N/N=C/c1c(-c2ccccc2)nc2n1ccc1nc(-c3ccccc3)c(/C=N/N=C(N)N)n12 | > 100 µM | > 100 µM | > 100 µM | > 100 µM | > 100 µM | > 100 µM | > 100 µM | > 100 µM | > 100 µM | 81.8 µM | – | – | – | – | – | – | – | – | – | –
Cc1ccc(S(=O)(=O)NCCSCCNS(=O)(=O)c2ccc(C)cc2)cc1 | > 100 µM | > 100 µM | > 100 µM | > 100 µM | > 100 µM | – | > 100 µM | > 100 µM | – | > 100 µM | – | – | – | – | – | – | – | – | – | –
O=S(=O)(Sc1ccc(Cl)cc1)c1ccc(Cl)cc1 | 32.6 µM | 93.7 µM | 30.2 µM | 21.3 µM | 31.8 µM | 60.5 µM | 37.4 µM | 24.8 µM | 30.9 µM | 36.3 µM | – | – | – | – | – | – | – | – | – | –
CC(=O)Nc1ccccc1SCCSSCCSc1ccccc1NC(C)=O | > 100 µM | > 100 µM | > 100 µM | > 100 µM | 40.5 µM | 42.2 µM | 68.6 µM | 38.7 µM | > 100 µM | 45 µM | – | – | – | – | – | – | – | – | – | –
CC(=O)C(O)N1C(=O)C=CC1=O (stereo unspecified) | – | – | – | 17.9 µM and 51.8 µM | – | 35 µM and 5.64 µM | 25 µM and 34.8 µM and 33.1 µM | – | – | – | 11600 | 12.8 | – | – | – | – | – | – | – | –
CC1=NN(c2ccccc2)C(=O)/C1=C/c1ccc(O)cc1 | > 100 µM | > 100 µM | > 100 µM | > 100 µM | > 100 µM | > 100 µM | > 100 µM | > 100 µM | – | > 100 µM | – | – | – | – | – | – | – | – | – | –
CCCCCCCSc1nc2c(C(=O)OCC)ncn2c2ccccc12 | > 100 µM | > 100 µM | > 100 µM | > 100 µM | > 100 µM | > 100 µM | > 100 µM | > 100 µM | > 100 µM | > 100 µM | – | – | – | – | – | – | – | – | – | –
CC1=C2C(=O)c3ccccc3C(=O)[C@H]2[C@H]2CCO[C@H]2O1 | 53.1 µM | 74.5 µM | 36.5 µM | 35.1 µM | > 100 µM | 70.4 µM | 45.1 µM | 58.4 µM | 40 µM | 36.5 µM | – | – | – | – | – | – | – | – | – | –
CCCCCCNC(=O)c1cnc(Cl)cn1 | 28.4 µM | 40.2 µM | – | 31.4 µM | 40 µM | > 100 µM | 37.3 µM | 27.7 µM | 34.3 µM | 37.4 µM | – | – | – | – | – | – | – | – | – | –
Cc1c2cc[n+](CCN3CCCCC3)cc2c(C)c2c1[nH]c1ccc(O)cc12 | 55.4 µM and > 71 µM | 25.3 µM and 14.8 µM | 40.2 µM and > 50.3 µM | 29.6 µM and 25.7 µM | 27.5 µM and > 24.2 µM | 23.3 µM and 11.6 µM | 10 µM and > 32.8 µM | 58.2 µM and 76.2 µM | 13 µM and 18.3 µM | 29 µM and > 74 µM | 11.1 | 1.74 | 6.26 | 2.33 | 2.29 | 2.57 | 0.523 | 8.69 | 28.7 | –
O=C1c2c(c3c4ccccc4[nH]c3c3ccc4ccccc4c23)C(=O)N1CCN1CCCCC1 | 4.75 µM | 6.34 µM | 5.04 µM | > 100 µM | 8.28 µM | 4.7 µM | 1.45 µM | 2.33 µM | 3.43 µM | 4.23 µM | 1.99 | 1.78 | 0.663 | 1.33 | 1.15 | 1.38 | 0.25 | 0.894 | 1.87 | 1.06
CC1C(O)C2(Oc3cc4c(c5c3[C@@H](CC5O)[C@H]2C)CCC2Cc3nc5c(nc3C[C@@]42C)CC2CCC3C4=C[C@H]6O[C@@]7(O[C@@](C)(CO)C[C@@H]7O)C(C)[C@@]6(O)[C@]4(C)[C@@H](O)CC3[C@]2(C)C5)OC1(C)C (stereo partly specified) | 1.05 µM | 0.367 µM | 0.406 µM | 0.641 µM | 0.609 µM | > 3.67 µM | 0.386 µM | 0.892 µM | 0.239 µM | > 3.67 µM | – | – | – | – | – | – | – | – | – | –
COc1ccc(-c2c3c(nc4nc(SCCc5ccccc5)nc(N)c24)CCCC3)cc1OC | > 100 µM | > 100 µM | > 100 µM | > 100 µM | > 100 µM | > 100 µM | > 100 µM | > 100 µM | > 100 µM | > 100 µM | – | – | – | – | – | – | – | – | – | –
CC12CCC(C(=O)OC1=O)C(C)(C)O2 (stereo unspecified) | > 100 µM | > 100 µM | > 100 µM | > 100 µM | > 100 µM | > 100 µM | > 100 µM | > 100 µM | > 100 µM | > 100 µM | – | – | – | – | – | – | – | – | – | –
CN(C)CCCNc1ccc2ncn3c4ccccc4c(=O)c1c23 | 26.5 µM | 24.1 µM | 56.2 µM | 40.4 µM | 15 µM | 26.9 µM | 14.5 µM | 13.7 µM | > 100 µM | 61.3 µM | – | – | – | – | – | – | – | – | – | –
COc1ccc([C@@H]2ON(C)[C@H]3CN(C)C(=O)[C@@H]23)cc1 | > 100 µM | > 100 µM | > 100 µM | – | > 100 µM | > 100 µM | > 100 µM | > 100 µM | > 100 µM | > 100 µM | – | – | – | – | – | – | – | – | – | –
CCOC(=O)/C(Cl)=C(\C)Nc1nc2c(ccc3ccccc32)s1 | > 100 µM | > 100 µM | > 100 µM | > 100 µM | > 100 µM | – | 69.3 µM | – | > 100 µM | > 100 µM | – | – | – | – | – | – | – | – | – | –
CN1CCCCC1CCN1CCCCC1 (stereo unspecified) | > 100 µM | > 100 µM | > 100 µM | > 100 µM | > 100 µM | > 100 µM | > 100 µM | > 100 µM | > 100 µM | > 100 µM | – | – | – | – | – | – | – | – | – | –
NC(=O)NN=C(CS)CS | 60 µM | > 100 µM | 51.3 µM | > 79.9 µM | 46.6 µM | > 100 µM | 59 µM | 40.3 µM | 41.9 µM | > 70.6 µM | – | – | – | – | – | – | – | – | – | –
Cc1cc(NCc2cc(Nc3ccnc4cc(Cl)ccc34)ccc2F)nc(N2CCCC2)n1 | 2.95 µM | – | 3.22 µM | – | – | – | 2.96 µM | – | 3.14 µM | 3.53 µM | 1.63 | – | 1.23 | – | – | – | 1.35 | – | 1.87 | 1.42
O=NC1C(Cl)C2CC1C1C(Br)C(Br)CC21 (stereo unspecified) | > 100 µM | > 100 µM | > 100 µM | > 100 µM | > 100 µM | 68.6 µM | > 100 µM | > 100 µM | > 100 µM | – | – | – | – | – | – | – | – | – | – | –

Reference: PubChem BioAssay (NCI)
